The values that follow are results of earlier work, collected in US20120252862A1, “Dissolvable Film Strip Comprising Natural Components” (YEDITEPE UNIVERSITES, priority 2009, published 2012).

The conditions of this data set: single oral dose.

For `O=C(O[C@@H]1Cc2c(O)cc(O)cc2O[C@@H]1c1cc(O)c(O)c(O)c1)c1cc(O)c(O)c(O)c1` [EGCG, epigallocatechin gallate], the “Dose reported safe to be applied” value was “up to 1600 mg”.
